Source: ChEMBL document CHEMBL3112524, “Rigid spiroethers targeting the decoding center of the bacterial ribosome” (Bioorg Med Chem, 2014)
Values after ≈ are worked out from the molar mass of the structure shown. One block for each compound: values may come before it. Active and inactive are the calls of the source. No cut-off for these calls is given here.

How the values were obtained:
Bacterial 70S ribosome = test: Binding affinity to Escherichia coli ribosome assessed as inhibition of transcription-translation activity preincubated for 30 mins followed by substrate addition measured after 5 mins by luciferase assay
[1] = Binding affinity to 2AP-labelled duplex RNA (unknown origin) by fluorescence spectrophotometric analysis
Escherichia coli [2] = test: Antibacterial activity against Escherichia coli ATCC 25922 assessed as growth inhibition after 18 hrs by geometric microdilution method; type: functional
Staphylococcus aureus = test: Antibacterial activity against Staphylococcus aureus ATCC 29213 assessed as growth inhibition after 18 hrs by geometric microdilution method; type: functional
Escherichia coli [3] = test: Antibacterial activity against kanamycin-resistant Escherichia coli K-12 JW 3596-1 harboring rfaC733 deletion mutant assessed as growth inhibition after 18 hrs by geometric microdilution method; type: functional; conditions: K-12 JW 3596-1, 18 h
Pseudomonas aeruginosa = test: Antibacterial activity against Pseudomonas aeruginosa ATCC 27853 assessed as growth inhibition after 18 hrs by geometric microdilution method; type: functional
Escherichia coli [4] = test: Antibacterial activity against kanamycin-resistant Escherichia coli K-12 JW 0451-2 harboring acrB747 deletion mutant assessed as growth inhibition after 18 hrs by geometric microdilution method; type: functional; conditions: K-12 JW 0451-2, 18 h
Escherichia coli [5] = test: Antibacterial activity against kanamycin-resistant Escherichia coli K-12 JW 5503-1 harboring tolc732 deletion mutant assessed as growth inhibition after 18 hrs by geometric microdilution method; type: functional; conditions: K-12 JW 5503-1, 18 h

Compound: NCC[C@H](O)C(=O)N[C@@H]1C[C@H](N)[C@@]2(CC[C@@H](O)[C@@H](O)CO2)[C@H](O)[C@H]1O
IC50 (Bacterial 70S ribosome): > 600 µM
EC50 [1]: 0.39 µM

Compound: NCCCC[C@H](N)C(=O)N[C@@H]1C[C@H](N)[C@@]2(C[C@H](O)[C@H](O)CO2)[C@H](O)[C@H]1O
IC50 (Bacterial 70S ribosome): 350 µM
EC50 [1]: 0.89 µM

EC50 [1]: 74 µM
Compound: N[C@@H]1C[C@H](N)[C@@]2(CC[C@H](O)[C@H](O)CO2)[C@H](O)[C@H]1O

Compound: NCCCC[C@H](N)C(=O)N[C@@H]1C[C@H](N)[C@@]2(CC[C@@H](O)[C@@H](O)CO2)[C@H](O)[C@H]1O
IC50 (Bacterial 70S ribosome): > 600 µM
EC50 [1]: 1.2 µM

Compound: N[C@@H]1C[C@H](N)[C@@]2(CC[C@@H](CNC(=O)[C@@H](N)Cc3c[nH]c4ccccc34)O2)[C@H](O)[C@H]1O
MIC (Escherichia coli [2]; ATCC 25922, 18 h): 98 µg/mL (≈ 235 µM)
MIC (Staphylococcus aureus; ATCC 29213, 18 h): 8.4 µg/mL (≈ 20.1 µM)
MIC (Escherichia coli [3]): > 131 µg/mL
IC50 (Bacterial 70S ribosome): 149 µM
MIC (Pseudomonas aeruginosa; ATCC 27853, 18 h): 65 µg/mL (≈ 156 µM)
MIC (Escherichia coli [4]): 32.5 µg/mL (≈ 77.8 µM)
MIC (Escherichia coli [5]): 131 µg/mL (≈ 314 µM)

Compound: NCC[C@H](O)C(=O)N[C@@H]1C[C@H](N)[C@@]2(C[C@H](O)[C@H](O)CO2)[C@H](O)[C@H]1O
IC50 (Bacterial 70S ribosome): > 600 µM
EC50 [1]: 12.6 µM

Compound: NC[C@@H]1O[C@H](O[C@H]2[C@@H](O)[C@H](O[C@@H]3[C@@H](O)[C@H](N)C[C@H](N)[C@H]3O[C@H]3O[C@H](CO)[C@@H](O)[C@H](O)[C@H]3N)O[C@@H]2CO)[C@H](N)[C@@H](O)[C@@H]1O [PAROMOMYCIN]
MIC (Escherichia coli [2]; ATCC 25922, 18 h): 4 µg/mL (≈ 6.5 µM)
MIC (Staphylococcus aureus; ATCC 29213, 18 h): 4 µg/mL (≈ 6.5 µM)
MIC (Escherichia coli [3]): 113 µg/mL (≈ 184 µM)
MIC (Pseudomonas aeruginosa; ATCC 27853, 18 h): 113 µg/mL (≈ 184 µM)
MIC (Escherichia coli [4]): 113 µg/mL (≈ 184 µM)
MIC (Escherichia coli [5]): 113 µg/mL (≈ 184 µM)

EC50 [1]: 141 µM
Compound: N[C@@H]1C[C@H](N)[C@@]2(CC[C@@H](O)[C@@H](O)CO2)[C@H](O)[C@H]1O

Compound: N[C@@H](Cc1ccc(O)cc1)C(=O)N[C@@H]1C[C@H](N)[C@@]2(C[C@H](O)[C@H](O)CO2)[C@H](O)[C@H]1O
IC50 (Bacterial 70S ribosome): > 600 µM

Compound: N[C@@H](Cc1ccc(O)cc1)C(=O)N[C@@H]1C[C@H](N)[C@@]2(CC[C@@H](O)[C@@H](O)CO2)[C@H](O)[C@H]1O
IC50 (Bacterial 70S ribosome): > 600 µM

Compound: NCCCC[C@H](N)CN[C@@H]1C[C@H](N)[C@@]2(CC[C@@H](O)[C@@H](O)CO2)[C@H](O)[C@H]1O
MIC (Escherichia coli [2]; ATCC 25922, 18 h): 236 µg/mL (≈ 627 µM)
MIC (Staphylococcus aureus; ATCC 29213, 18 h): 14.7 µg/mL (≈ 39 µM)
MIC (Escherichia coli [3]): > 118 µg/mL
IC50 (Bacterial 70S ribosome): > 600 µM
EC50 [1]: 0.65 µM
MIC (Pseudomonas aeruginosa; ATCC 27853, 18 h): > 118 µg/mL
MIC (Escherichia coli [4]): 118 µg/mL (≈ 313 µM)
MIC (Escherichia coli [5]): > 118 µg/mL

EC50 [1]: 6.9 µM
Compound: NCC[C@H](O)C(=O)N[C@@H]1C[C@H](N)[C@@]2(CC[C@H](O)[C@H](O)CO2)[C@H](O)[C@H]1O

EC50 [1]: 6.5 µM
Compound: N[C@@H]1C[C@H](N)[C@@]2(C[C@H](O)[C@H](O)CO2)[C@H](O)[C@H]1O

Compound: N[C@@H]1C[C@H](N)[C@@]2(CC[C@@H](CNC(=O)[C@@H](N)Cc3cnc[nH]3)O2)[C@H](O)[C@H]1O
IC50 (Bacterial 70S ribosome): 172 µM
EC50 [1]: 1.6 µM

Compound: NCC[C@H](O)CN[C@@H]1C[C@H](N)[C@@]2(CC[C@H](O)[C@H](O)CO2)[C@H](O)[C@H]1O
IC50 (Bacterial 70S ribosome): > 600 µM
EC50 [1]: 0.93 µM

EC50 [1]: 12 µM
Compound: NCCCC[C@H](N)C(=O)N[C@@H]1C[C@H](N)[C@@]2(CC[C@H](O)[C@H](O)CO2)[C@H](O)[C@H]1O

Compound: NC[C@H]1O[C@H](O[C@H]2[C@H](O)[C@@H](O)[C@H](N)C[C@@H]2N)[C@H](N)[C@@H](O)[C@@H]1O [NEAMINE]
MIC (Escherichia coli [2]; ATCC 25922, 18 h): 14 µg/mL (≈ 43.4 µM)
MIC (Staphylococcus aureus; ATCC 29213, 18 h): 5 µg/mL (≈ 15.5 µM)
MIC (Escherichia coli [3]): 150 µg/mL (≈ 465 µM)
EC50 [1]: 9.5 µM
MIC (Pseudomonas aeruginosa; ATCC 27853, 18 h): 73 µg/mL (≈ 226 µM)
MIC (Escherichia coli [4]): 150 µg/mL (≈ 465 µM)
MIC (Escherichia coli [5]): 300 µg/mL (≈ 931 µM)

Compound: N[C@@H]1C[C@H](N)[C@@]2(CC[C@@H](CNC(=O)[C@@H](N)Cc3ccc(O)cc3)O2)[C@H](O)[C@H]1O
IC50 (Bacterial 70S ribosome): > 600 µM

Compound: N[C@H](CN[C@@H]1C[C@H](N)[C@@]2(CC[C@H](O)[C@H](O)CO2)[C@H](O)[C@H]1O)Cc1ccc(O)cc1
MIC (Escherichia coli [2]): inactive
MIC (Staphylococcus aureus): inactive
MIC (Escherichia coli [3]): > 129 µg/mL
IC50 (Bacterial 70S ribosome): > 600 µM
MIC (Pseudomonas aeruginosa): inactive
MIC (Escherichia coli [4]): 129 µg/mL (≈ 313 µM)
MIC (Escherichia coli [5]): > 129 µg/mL

Compound: N=C(N)NCCC[C@H](N)C(=O)NC[C@@H]1CC[C@@]2(O1)[C@H](O)[C@@H](O)[C@H](N)C[C@@H]2N
IC50 (Bacterial 70S ribosome): 98 µM
EC50 [1]: 1.5 µM

Compound: NCCCC[C@H](N)CN[C@@H]1C[C@H](N)[C@@]2(CC[C@H](O)[C@H](O)CO2)[C@H](O)[C@H]1O
MIC (Escherichia coli [2]; ATCC 25922, 18 h): 236 µg/mL (≈ 627 µM)
MIC (Staphylococcus aureus; ATCC 29213, 18 h): 3.8 µg/mL (≈ 10.1 µM)
MIC (Escherichia coli [3]): > 118 µg/mL
IC50 (Bacterial 70S ribosome): 100 µM
EC50 [1]: 0.09 µM
MIC (Pseudomonas aeruginosa; ATCC 27853, 18 h): > 118 µg/mL
MIC (Escherichia coli [4]): 118 µg/mL (≈ 313 µM)
MIC (Escherichia coli [5]): 118 µg/mL (≈ 313 µM)

Compound: N[C@@H](Cc1ccc(O)cc1)C(=O)N[C@@H]1C[C@H](N)[C@@]2(CC[C@H](O)[C@H](O)CO2)[C@H](O)[C@H]1O
IC50 (Bacterial 70S ribosome): 450 µM

Compound: NCCCC[C@H](N)CN[C@@H]1C[C@H](N)[C@@]2(C[C@H](O)[C@H](O)CO2)[C@H](O)[C@H]1O
IC50 (Bacterial 70S ribosome): 540 µM
EC50 [1]: 0.15 µM

Compound: N[C@H](CN[C@@H]1C[C@H](N)[C@@]2(CC[C@@H](O)[C@@H](O)CO2)[C@H](O)[C@H]1O)Cc1ccc(O)cc1
IC50 (Bacterial 70S ribosome): > 600 µM

Compound: NCCCC[C@H](N)C(=O)NC[C@@H]1CC[C@@]2(O1)[C@H](O)[C@@H](O)[C@H](N)C[C@@H]2N
MIC (Escherichia coli [2]; ATCC 25922, 18 h): > 112 µg/mL
MIC (Staphylococcus aureus; ATCC 29213, 18 h): 7.2 µg/mL (≈ 20 µM)
MIC (Escherichia coli [3]): 112 µg/mL (≈ 312 µM)
IC50 (Bacterial 70S ribosome): 325 µM
EC50 [1]: 1.4 µM
MIC (Pseudomonas aeruginosa; ATCC 27853, 18 h): > 112 µg/mL
MIC (Escherichia coli [4]): > 112 µg/mL
MIC (Escherichia coli [5]): > 112 µg/mL

Compound: N[C@@H]1C[C@H](N)[C@@]2(CC[C@@H](CNC(=O)[C@@H]3CCCN3)O2)[C@H](O)[C@H]1O
IC50 (Bacterial 70S ribosome): 156 µM
EC50 [1]: 0.68 µM
